Test results: patent US6825230B2, “Spiro and dispiro 1,2,4-trixolane antimalarials” (Medicines for Malaria Venture MMV, priority 2002, dated 2004)
Converted amounts (≈) assume the structure as drawn. Like-named read-outs stand apart in the source and are kept apart here.

Experiments:
[1] = Pharmacokinetics in rats (IV and oral dosing); conditions: rat, in vivo
Excerpt: (§1) Artesunate is listed as a reference compound.

[2] = Pharmacokinetics in dogs (IV and oral dosing); conditions: in vivo, dog; for bioavailability: some values marked (V), not defined
Excerpt: as §1

P. berghei ANKA strain [3] = test: Prophylactic activity, single 100 mg/kg po at various times before infection; assay type: in vivo, Plasmodium berghei; conditions: for Prophylactic Activity (%) 72 h: po, 100 mg/kg; for Prophylactic Activity (%) 24 h: single 100 mg/kg po 24 h before infection; for Prophylactic Activity (%) 24 h / Prophylactic Activity (%) 48 h / Prophylactic Activity (%) 0 h: parasitemia reduction on day 3 post-infection; for Prophylactic Activity (%) 48 h: single 100 mg/kg po 48 h before infection; for Prophylactic Activity (%) 0 h: single 100 mg/kg po at 0 h
Method: (§2) Moro NMRI male mice (Fu Albino specific pathogen free) weighing 18±2 g were infected intravenously (i.v.) with 2×10^7 P. berghei ANKA strain-infected erythrocytes from donor mice on day 0 of the experiment. From donor mice with circa 30% parasitemia, heparinized blood was taken and diluted in physiological saline to 10^8 parasitized erythrocytes per ml. An aliquot (0.2 ml) of this suspension was injected i.v. into experimental and control groups of mice. […] Throughout the experiments, mice were kept in groups of three or five animals in Makrolon type II cages in an air-conditioned animal room at 22 to 23° C.
Prophylactic activities of the compounds were compared after administering po single dose of 100 mg/kg to different groups of five animals at various times before infection. All groups including an untreated control group, were then infected at the same time. Parasitemia was determined for each animal on day 3 post-infection, and percent of reduction of the level of parasitemia compared to levels for animals given no drug is determined.

[4] = test system: Schistosoma mansoni adult worms (49-day-old); test: Effect on adult schistosomes (49-day-old) in infected mice; assay type: in vivo; conditions: single 400 mg/kg per os; for % reduction of adult worms growth at day 49 after per os application of 400 mg/kg, TWR (%): 49-day-old adults, total worm reduction rate; for Adult worms day 49, per os 400 mg/kg, DEAD WORM (%): percentage of dead worm in the liver
Method: Mice were infected with 100 Schistosoma mansoni cercariae on day 49 post-treatment. Each group was treated per os with OZ compounds at single doses of 200, 400, and 600 mg/kg. Untreated mice served as the control. All groups were killed 4 weeks after treatment and the liver and intestine were removed and separated. The liver and intestine were compressed and alive male and female worms could be seen and counted.

[5] = test system: ANKA strain of P. berghei; test: Single dose STI in vivo screen in infected mice; set-up: species or system Plasmodium berghei; conditions: for Survival (days) 10 mg/kg po: single 10 mg/kg po in 3% ethanol and 7% Tween 80; for Survival (days) 10 mg/kg po / Survival (days) 10 mg/kg SSV po / Survival (days) 10 mg/kg sc: untreated 6-7 days; for Activity (%) 10 mg/kg po: single 10 mg/kg po in 3% ethanol and 7% Tween 80 on day 1 post-infection; for Survival (days) 10 mg/kg SSV po: single 10 mg/kg po in SSV; for Activity (%) 10 mg/kg SSV po: single 10 mg/kg po in standard suspending vehicle (SSV) on day 1 post-infection; for Survival (days) 10 mg/kg sc: single 10 mg/kg sc in 3% ethanol and 7% Tween 80; for Activity (%) 10 mg/kg sc: single 10 mg/kg sc in 3% ethanol and 7% Tween 80 on day 1 post-infection
[6] = test system: chloroquine-resistant K1 strain of P. falciparum; test: In vitro antimalarial semiautomated microdilution assay ([3H]-hypoxanthine incorporation), K1 strain; assay type: cell-based, Plasmodium falciparum; conditions: Plasmodium falciparum
Summary of the method: (§3)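 IC50 comes from Logit regression of [3H]-hypoxanthine incorporation data. Intraerythrocytic P. falciparum taken from asynchronous stock cultures is exposed to OZ compounds in a semiautomated microdilution format.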

[7] = test system: chloroquine-sensitive NF54 strain of P. falciparum; test: In vitro antimalarial semiautomated microdilution assay ([3H]-hypoxanthine incorporation), NF54 strain; assay type: cell-based, Plasmodium falciparum; conditions: Plasmodium falciparum
Summary of the method: as §3

P. berghei ANKA strain [8] = test: Divided 3x3 mg/kg and 3x1 mg/kg po doses in infected mice; assay type: in vivo, Plasmodium berghei
Summary of the method: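 Male NMRI mice were infected i.v. with 2×10^7 P. berghei-parasitized erythrocytes on day 0, then dosed orally in SSV vehicle on days 1, 2 and 3 post-infection.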

P. berghei ANKA strain [9] = test: Onset of action and recrudescence experiment, single 100 mg/kg po; assay type: in vivo, Plasmodium berghei; conditions: single 100 mg/kg po (SSV) on day +3 post-infection; recrudescence = >5% parasitemia; followed up to 60 days; groups of five
Method: The onset of drug action was determined after a single fixed dose of 100 mg/kg (SSV vehicle) po to groups of five animals on day +3 post-infection (day 0).
as §2

[10] = test system: ANKA strain of Plasmodium berghei; test: Single dose ED50/ED90/ED99 determination in infected mice; assay type: in vivo; conditions: single dose po in SSV on day 1 post-infection, parasitemia day 3, nonlinear fitting
Method: In the single dose ED50/ED98/ED99 determinations, Moro SPF or NMRI mice (group of three) infected with the ANKA strain of Plasmodium berghei were treated on day one post-infection. […] The SSV consists of 0.5% w/v CMC, 0.5% v/v benzyl alcohol, 0.4% v/v Tween 80, and 0.9% w/v sodium chloride in water. Antimalarial activity was measured by percent reduction in parasitemia on day three post-infection. The ED50/ED90 values were calculated by nonlinear fitting.
The ED50, ED90, and ED99 values were calculated by non-linear fitting with statistical program and were expressed in mg/kg.

[11] = percent reduction in parasitemia on day 3
[12] = chloroquine-resistant K1 strain, 72 h incubation, read-out: IC50 (ng/ml) K1
[13] = chloroquine-sensitive NF54 strain, 72 h incubation, read-out: IC50 (ng/ml) NF54

SMILES	Prophylactic Activity (%) 72 h (P. berghei ANKA strain [3])	Prophylactic Activity (%) 24 h (P. berghei ANKA strain [3])	Prophylactic Activity (%) 48 h (P. berghei ANKA strain [3])	Prophylactic Activity (%) 0 h (P. berghei ANKA strain [3])	% reduction of adult worms growth at day 49 after per os application of 400 mg/kg, TWR (%) [4]	Adult worms day 49, per os 400 mg/kg, DEAD WORM (%) [4]	Survival (days) 10 mg/kg po [5]	Activity (%) 10 mg/kg po [5, 11]	Survival (days) 10 mg/kg SSV po [5]	Activity (%) 10 mg/kg SSV po [5, 11]	Survival (days) 10 mg/kg sc [5]	Activity (%) 10 mg/kg sc [5, 11]	IC50 [6, 12]	IC50 [7, 13]	other results
NC(=O)CNC[C@H]1CC[C@]2(CC1)OOC1(O2)C2CC3CC(C2)CC1C3 (some centres unmarked) [OZ256]	13%	82%	29%	100%	10%	19%	8.7 days	99.70%	8.7 days	99.67%	9.7 days	99.95%	0.3 ng/mL (≈ 0.856 nM)	0.2 ng/mL (≈ 0.571 nM)	half-life ([1]; iv, 10 mg/kg): 1.57 h; bioavailability ([1]; po, 10 mg/kg): 18.6%; bioavailability ([1]; po, 25 mg/kg): 51.9%; half-life ([1]; po, 25 mg/kg): 1.22 h; half-life ([2]; IV 10 mg/kg): 1.42 h; half-life ([2]; oral 10 mg/kg): 1.38 h; bioavailability ([2]; oral 10 mg/kg, read-out: Dog Oral Bioavailability 10 mg/kg): 42%; bioavailability ([2]; oral 25 mg/kg, read-out: Dog Oral Bioavailability 25 mg/kg): 38.3%
CC(C)(N)C(=O)NC[C@H]1CC[C@]2(CC1)OOC1(O2)C2CC3CC(C2)CC1C3 (some centres unmarked) [OZ281]	8%	99.23%	45%	100%	12%	15%			8.7 days	99.87%			0.5 ng/mL (≈ 1.32 nM)	0.3 ng/mL (≈ 0.793 nM)	Activity (%) 3 mg/kg SSV po ([5]; single 3 mg/kg po in SSV, percent reduction in parasitemia on day 3): 96%; Survival (P. berghei ANKA strain [8]; 3 × 1 mg/kg p.o. SSV on days 1, 2, 3 post-infection): 13 days; Survival (P. berghei ANKA strain [8]; 3 × 3 mg/kg p.o. SSV on days 1, 2, 3 post-infection): 12.4 days; Activity (%) (P. berghei ANKA strain [8]; 3 × 3 mg/kg p.o. SSV on days 1, 2, 3 post-infection, percent reduction of parasitemia vs control on day 4): 100%; Activity (%) (P. berghei ANKA strain [8]; po, 1 mg/kg, 96 h): 92%; Cures (P. berghei ANKA strain [8]; po, 3 mg/kg, 720 h): 0\5
O=C(C[C@H]1CC[C@]2(CC1)OOC1(O2)C2CC3CC(C2)CC1C3)NO (some centres unmarked) [OZ175]							10.0 days	99.1%	12.3 days	97%	8.7 days	92%			Time of Recrudescence (P. berghei ANKA strain [9]): 13.0 days; IC50 ([6]; K1, 72 h, read-out: IC50 (ng/ml) K1, chloroquine-resistant K1 strain, 72 h incubation): 1.4 ng/mL (≈ 4.15 nM); ED50 ([10]; Plasmodium berghei, po): 3.5 mg/kg; ED90 [10]: 6.2 mg/kg; ED99 [10]: 9.9 mg/kg; IC50 ([7]; NF54, 72 h, read-out: IC50 (ng/ml) NF54, chloroquine-sensitive NF54 strain, 72 h incubation): 2 ng/mL (≈ 5.93 nM)
